The source of these data is ChEMBL document CHEMBL1201862, “PubChem BioAssay data set” (2004).

SMILES strings stand for the structures.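 Each compound was tested at five concentrations against cells in 96-well plates for 48 hours. GI50 marks 50% less growth.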 Activity calls are given as the source filed them. No stated cut-off is given here; in the data, active = GI50 up to about 1.1 µM and inactive = higher.

Common to all, as to test: inhibition of tumour cell growth, NCI panel, 48 h
The subject of assay [1] is SR.
The test system of assay [2] is SK-MEL-28.
Assay [3] concerns OVCAR-4.
Assay [4] relates to SW-620.
In assay [5] the test system is A498.
The subject of assay [6] is SK-MEL-2.
Assay [7] relates to 786-0.
For assay [8], the system named is MOLT-4.
For assay [9], the system named is SK-MEL-5.
In assay [10] the test system is ACHN.
In assay [11] the test system is SF-539.
Assay [12] deals with COLO 205.
The test system of assay [13] is HT-29.

In the case of `O=C1NC(=O)C2C(=O)NC(=O)C1C2c1c(Cl)cccc1Cl` (configuration not stated), the GI50 in [1] was > 100 µM (inactive); in assay [2] it was > 100 µM (inactive); in assay [3], > 100 µM (inactive); in [4], > 31.3 µM (inactive); in assay [5], > 100 µM (inactive); in assay [6], > 100 µM (inactive). Besides, the GI50 in assay [7] is > 61.8 µM (inactive); in assay [8], > 100 µM (inactive); in assay [9] it was > 100 µM (inactive); in assay [10], > 100 µM (inactive); in assay [11], > 88.3 µM (inactive); in assay [12] it was > 41.8 µM (inactive). Moreover, in assay [13], the GI50 is > 92.5 µM (inactive).

Turning to `CCC(=O)C(C)C1=Nc2nnc(CCCCCCCc3nnc4n3C(=O)C(C(C)C(=O)CC)=N4)n2C1=O` (configuration not stated), the GI50 in [1] is 21.6 µM (inactive); in assay [2], > 100 µM (inactive); in [4] it was > 100 µM (inactive); in [5] it was > 100 µM (inactive); in assay [7], > 100 µM (inactive); in [8] it was > 100 µM (inactive). Moreover, the GI50 in assay [9], in [10], in assay [11], in assay [12] and in assay [13] was > 100 µM (inactive) each time.

In the case of `COC1(OC)CC2C(=O)N(Cc3ccccc3)C1C(S(=O)(=O)c1ccccc1)C2S(=O)(=O)c1ccccc1` (configuration not stated), the GI50 is 5.31 µM (inactive) in assay [1]; 13.7 µM (inactive) in [2]; 15.1 µM (inactive) in [3]; 2.13 µM (inactive) in [4]; 18.2 µM (inactive) in assay [5]; 16.9 µM (inactive) in assay [7]. The GI50 in assay [8] was 11.5 µM (inactive); in assay [9] it was 18.4 µM (inactive); in assay [10], 10.6 µM (inactive); in assay [11], 14 µM (inactive); in assay [12] it was 4.53 µM (inactive); in assay [13] it was 11.6 µM (inactive).

With `NC1=C(O)c2cccc3cccc(c23)C1=O`, the GI50 in assay [2], in assay [3], in assay [4], in assay [5], in [6] and in assay [7] was > 100 µM (inactive) each time. Further, the GI50 in assay [8], in assay [9], in [10], in assay [11], in [12] and in assay [13] was > 100 µM (inactive) throughout.

As for `Cc1cccc(N2C(=O)C(=O)C(c3nc4ccccc4s3)C(=O)C2=O)c1C`, the GI50 in assay [1], in assay [2], in [3], in assay [4], in [5] and in assay [6] was > 100 µM (inactive) in each case. In addition, the GI50 in assay [7], in assay [8], in [9], in assay [10], in assay [11] and in assay [12] was > 100 µM (inactive) each time. For the same molecule, the GI50 in assay [13] is > 100 µM (inactive).

On to `CC(=O)/C(=N\O)C(=O)Nc1ccc(Cl)cc1Cl`, for which the GI50 in assay [2], in assay [3], in [4], in [5], in [6] and in assay [7] was > 100 µM (inactive) in each case. Besides, the GI50 in [8], in assay [9], in assay [10], in [11], in [12] and in [13] was > 100 µM (inactive) throughout.

Regarding `CC1(C)CC(c2c[nH]c3ccccc23)=CC2=Nc3ccccc3C21O` (configuration not stated), the GI50 in assay [2] was 16.4 µM (inactive); in [3], 8.38 µM (inactive); in assay [4], 52.1 µM (inactive); in assay [5], > 100 µM (inactive); in [6], > 100 µM (inactive); in assay [7], 43.7 µM (inactive). Further, the GI50 is > 100 µM (inactive) in [8]; 36.4 µM (inactive) in assay [9]; > 100 µM (inactive) in assay [10]; 93.1 µM (inactive) in [11]; > 100 µM (inactive) in assay [12]; 59.4 µM (inactive) in assay [13].

On to `O=C(Nc1ccccc1)Oc1ccccc1C1CCCCC1`, for which the GI50 is 14.8 µM (inactive) in [1]; 29.6 µM (inactive) in assay [2]; 14.6 µM (inactive) in assay [3]; 25.5 µM (inactive) in assay [4]; 30.6 µM (inactive) in assay [5]; 17.2 µM (inactive) in [7]. In addition, the GI50 in [8] was 14.9 µM (inactive); in assay [9] it was 13.5 µM (inactive); in assay [11], 25.8 µM (inactive); in assay [12], 15.8 µM (inactive); in assay [13], 20.4 µM (inactive).

For the molecule `Cc1c(C(=O)C/C(=N/NC(=O)c2ccccc2O)C(=O)Nc2ccccc2C(C)C)[n+]([O-])c2ccccc2[n+]1[O-]`, the GI50 is 69.7 µM (inactive) in [2]; 31.8 µM (inactive) in [3]; 35.4 µM (inactive) in assay [4]; > 100 µM (inactive) in assay [5]; 0.0522 µM (active) in assay [6]; 49.7 µM (inactive) in assay [7]. In addition, the GI50 was 3.2 µM (inactive) in assay [8]; 43 µM (inactive) in assay [9]; 36.6 µM (inactive) in assay [10]; 40.6 µM (inactive) in assay [11]; 31.7 µM (inactive) in assay [12]; 43.6 µM (inactive) in assay [13].

For `CCCCCCCCCCC(=O)CCCCCCC(=O)O`, the GI50 is 18.2 µM (inactive) in assay [1]; 40 µM (inactive) in assay [2]; 45.6 µM (inactive) in assay [3]; 22.4 µM (inactive) in [4]; 20.1 µM (inactive) in assay [5]; 25.8 µM (inactive) in assay [6]. The GI50 in assay [7] was 18.8 µM (inactive); in assay [8], 15.1 µM (inactive); in [9] it was 15.5 µM (inactive); in [10], 21.5 µM (inactive); in assay [11], 18.1 µM (inactive); in assay [12], 15.4 µM (inactive). Moreover, in assay [13], the GI50 was 18.5 µM (inactive).

As to `COc1cc([C@@H]2c3cc4c(cc3[C@@H](NC(=O)c3ccc(OC(C)=O)cc3)C3COC(=O)[C@@H]32)OCO4)cc(OC)c1O` (some centres not stated), the GI50 is 3.48 µM (inactive) in assay [2]; 39.9 µM (inactive) in assay [3]; 0.729 µM (active) in assay [4]; 2.22 µM (inactive) in assay [5]; 5.57 µM (inactive) in assay [6]; 1.22 µM (inactive) in [7]. Also, the GI50 in assay [8] was 0.0298 µM (active); in assay [9] it was 1.99 µM (inactive); in assay [10], 0.689 µM (active); in [11], 0.406 µM (active); in assay [12] it was 10.2 µM (inactive); in [13], 5.01 µM (inactive).

`C[C@H](NS(=O)(=O)c1ccc(NC(=O)c2ccccc2)cc1)C(=O)O`: the GI50 in [2], in assay [3], in assay [4], in assay [5], in [6] and in assay [7] was > 100 µM (inactive) in each case. Also, the GI50 in assay [8], in assay [9], in [10], in [11], in assay [12] and in assay [13] was > 100 µM (inactive) throughout.

Turning to `CN(C)CC1CCCC/C1=N\OC(=O)c1ccccc1` (configuration not stated), the GI50 in assay [1], in [2], in assay [3], in assay [4], in [5] and in [6] was > 100 µM (inactive) throughout. Moreover, the GI50 in assay [7], in [8], in assay [9], in assay [10], in assay [11] and in assay [12] was > 100 µM (inactive) in each case. In assay [13], the GI50 was > 100 µM (inactive).

Consider `CCC1CNC(=O)CC1CC(=O)OC` (configuration not stated), for which the GI50 in assay [1], in assay [2], in [3], in [4], in assay [6] and in [7] was > 100 µM (inactive) each time. Further, the GI50 in assay [8], in assay [9] and in [10] was > 100 µM (inactive) throughout.

As for `c1ccc2c(CNCCCCCCCCCCCCNCc3cccc4ccccc34)cccc2c1`, the GI50 in assay [1] was 1.11 µM (active); in assay [2], 1.95 µM (inactive); in assay [3] it was 1.58 µM (inactive); in assay [4], 1.79 µM (inactive); in assay [5] it was 6.08 µM (inactive); in assay [6], 1.59 µM (inactive). In addition, the GI50 is 1.81 µM (inactive) in [7]; 1.22 µM (inactive) in assay [8]; 1.83 µM (inactive) in assay [9]; 1.91 µM (inactive) in [10]; 1.58 µM (inactive) in assay [11]; > 100 µM (inactive) in assay [12]. In [13], the GI50 was 1.64 µM (inactive).

In the case of `COc1cc(CO)cc2c1[nH]c1ccccc12` [KOENOLINE], the GI50 in assay [1], in assay [2], in assay [3], in assay [4], in assay [6] and in [7] was > 25 µM (inactive) in each case. In addition, the GI50 in assay [8], in assay [9], in [10], in assay [11], in [12] and in [13] was > 25 µM (inactive) throughout.
